For series [1], the target named is T1, TcDHODH (Trypanosoma cruzi, UniProt Q4D3W2).
T1 construct: made in house
T1 sequence (Q4D3W2 1-314): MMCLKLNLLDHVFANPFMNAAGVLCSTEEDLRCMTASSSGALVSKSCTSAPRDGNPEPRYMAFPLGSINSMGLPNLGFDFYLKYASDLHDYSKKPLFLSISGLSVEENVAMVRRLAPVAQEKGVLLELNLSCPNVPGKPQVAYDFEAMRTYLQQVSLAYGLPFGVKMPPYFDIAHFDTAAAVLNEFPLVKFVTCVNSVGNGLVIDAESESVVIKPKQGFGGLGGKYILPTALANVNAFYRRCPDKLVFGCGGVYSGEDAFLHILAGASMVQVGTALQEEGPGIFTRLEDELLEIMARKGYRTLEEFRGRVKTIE
Put plainly: biochemical. The note with it: for IC50: 500 μM L-dihydroorotate, 2 mM fumarate, pH 8.0; for Ki: read-out: TcDHODH Ki^app.

Details of series [2]: method as in earlier work. The note with it: cited from earlier work.

We go through three molecules from PMC5125662, “The Open Form Inducer Approach for Structure-Based Drug Design” (PLoS ONE, 2016).

Read-outs that look alike come from different tables or passages of the source. Bounds are passed on as bounds.

For the molecule `CC(C)(C)CCc1c(C(=O)O)[nH]c(=O)[nH]c1=O` [Compound 1], in series [1], the IC50 is not below 400 µM and the Ki was more than 19.7 µM.
Turning to `O=C(O)c1ccc2ccccc2c1` [2-naphthoic acid], in series [2], the pKa is listed as 4.17.
Turning to `O=C(O)c1cc(=O)[nH]c(=O)[nH]1` [ORO, orotate, reference compound], half-maximal inhibition in series [1] (IC50) required 112 ± 21 µM. Further, the Ki in series [1] (calculated from IC50 by Cheng-Prusoff equation, Km for dihydroorotate […]) is 5.51 µM.
